Patent US8846709B2, “7-(3,5-dimethyl-4-isoxazolyl)-8-(methyloxy)-1H-imidazo[4,5-C]quinoline derivatives” (GlaxoSmithKline LLC, priority 2011, dated 2014)

Test system: LPS induced IL-6 secretion from whole blood
Assay: Measurement of LPS Induced IL-6 Secretion from Whole Blood
Assay type: cell-based
Details: IL-6 in whole blood, LPS 200 ng/ml, 24 hours
Protocol: Activation of monocytic cells by agonists of toll-like receptors such as bacterial lipopolysaccharide (LPS) results in production of key inflammatory mediators including IL-6. Such pathways are widely considered to be central to the pathophysiology of a range of auto-immune and inflammatory disorders.
Compounds to be tested are diluted to give a range of appropriate concentrations of which 1 μl of the diluted stocks is added to a 96 well plate. Following addition of whole blood (130 μl) the plates are incubated at 37 degrees (5% CO2) for 30 min before the addition of 10 μl of 2.8 ug/ml LPS, diluted in complete RPMI 1640 (final concentration=200 ng/ml), to give a total volume of 140 ul per well. After further incubation for 24 hours at 37 degrees, 140 μl of PBS are added to each well. The plates are sealed, shaken for 10 minutes and then centrifuged (2500 rpm×10 min). 100 μl of the supernatant are removed and IL-6 levels assayed by immunoassay (typically by MesoScale Discovery technology) either immediately or following storage at −20 degrees. Concentration response curves for each compound was generated from the data and an IC50 value was calculated

Compound COc1cc2c(cc1-c1c(C)noc1C)ncc1nc(NCCO)n(CC3CCOCC3)c12 [Example 2, 2-{[7-(3,5-dimethyl-4-isoxazolyl)-8-(methyloxy)-1-(tetrahydro-2H-pyran-4-ylmethyl)-1H-imidazo[4,5-c]quinolin-2-yl]amino}ethanol] has an IC50 of over 3.16 µM.
COc1cc2c(cc1-c1c(C)noc1C)ncc1nc(NCCN)n(CC3CCOCC3)c12 [Example 8, N1-(7-(3,5-dimethylisoxazol-4-yl)-8-methoxy-1-((tetrahydro-2H-pyran-4-yl)methyl)-1H-imidazo[4,5-c]quinolin-2-yl)ethane-1,2-diamine] showed an IC50 of over 3.16 µM.
